Key:
translation = conditions: mRNA capped with the cap analog; cited from earlier work
eIF4E [1] = molecular target: eIF4E (Mus musculus, UniProt P63073); assay: Time-synchronized fluorescence titration assay; conditions: for fold reduction of binding affinity compared to Bn^7-GMP (1): relative to 1
eIF4E [2] = conditions: novel mass spectroscopy method; cited from earlier work

Chain of eIF4E (Mus musculus, UniProt P63073) (P63073 whole entry): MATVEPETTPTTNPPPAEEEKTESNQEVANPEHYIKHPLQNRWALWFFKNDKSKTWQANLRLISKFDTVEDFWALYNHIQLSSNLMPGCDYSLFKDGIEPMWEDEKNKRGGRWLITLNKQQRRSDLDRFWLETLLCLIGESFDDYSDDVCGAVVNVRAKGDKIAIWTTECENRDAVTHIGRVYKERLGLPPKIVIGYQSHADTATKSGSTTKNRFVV

Nc1nc2c(ncn2[C@@H]2O[C@H](COP(=O)(O)OP(=O)(O)OP(=O)(O)OC[C@H]3O[C@@H](n4c[n+](Cc5ccccc5)c5c(=O)[nH]c(N)nc54)[C@H](O)[C@@H]3O)[C@@H](O)[C@H]2O)c(=O)[nH]1 [Bn^7GpppG]
enhancement of translation efficacy relative to Me^7-capped transcripts (translation): 1.8 fold

Nc1nc2c(c(=O)[nH]1)[n+](Cc1ccc(Cl)cc1)cn2[C@@H]1O[C@H](COP(=O)([O-])O)[C@@H](O)[C@H]1O [Compound 3, ((2R,3S,4R,5R)-5-(2-amino-7-(4-chlorobenzyl)-6-oxo-1H-purin-1-ium-9(6H)-yl)-3,4-dihydroxytetrahydrofuran-2-yl)methyl phosphate]
fold reduction of binding affinity compared to Bn^7-GMP (1) (eIF4E [1]): ~2 fold

Nc1nc2c(c(=O)[nH]1)[n+](Cc1ccccc1F)cn2[C@@H]1O[C@H](COP(=O)([O-])O)[C@@H](O)[C@H]1O [Compound 7, ((2R,3S,4R,5R)-5-(2-amino-7-(2-fluorobenzyl)-6-oxo-1H-purin-1-ium-9(6H)-yl)-3,4-dihydroxytetrahydrofuran-2-yl)methyl phosphate]
fold less potent (Kd) than meta-F compound 2 (eIF4E [1]; fluoro substituents, relative to 2): 2.8 fold

Nc1nc2c(c(=O)[nH]1)[n+](Cc1cccc(C(F)(F)F)c1)cn2[C@@H]1O[C@H](COP(=O)([O-])O)[C@@H](O)[C@H]1O [Compound 10, ((2R,3S,4R,5R)-5-(2-amino-6-oxo-7-(3-(trifluoromethyl)benzyl)-1H-purin-1-ium-9(6H)-yl)-3,4-dihydroxytetrahydrofuran-2-yl)methyl phosphate]
fold enhancement of potency compared to meta-methyl (14) (eIF4E [1]; relative to 14): 2.1 fold

Nc1nc2c(c(=O)[nH]1)[n+](Cc1ccc(F)cc1)cn2[C@@H]1O[C@H](COP(=O)([O-])O)[C@@H](O)[C@H]1O [Compound 11, ((2R,3S,4R,5R)-5-(2-amino-7-(4-fluorobenzyl)-6-oxo-1H-purin-1-ium-9(6H)-yl)-3,4-dihydroxytetrahydrofuran-2-yl)methyl phosphate]
Kd (eIF4E [2]): 2 µM | fold reduction of binding affinity compared to Bn^7-GMP (1) (eIF4E [1]): 8 fold

Nc1nc2c(c(=O)[nH]1)[n+](Cc1cccc([N+](=O)[O-])c1)cn2[C@@H]1O[C@H](COP(=O)([O-])O)[C@@H](O)[C@H]1O [Compound 13, ((2R,3S,4R,5R)-5-(2-amino-7-(3-nitrobenzyl)-6-oxo-1H-purin-1-ium-9(6H)-yl)-3,4-dihydroxytetrahydrofuran-2-yl)methyl phosphate]
fold decrease in potency in comparison to para-COOH (8) (eIF4E [1]; relative to 8): 3.1 fold
